Assay results from the supplement of paper PMC5762512.

Legend:
Experiment in all cases: IC50 cell viability (Alamar Blue, 96 h)
[1] = system: PER-535
Procedure: (§1)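 Cells in log-phase growth were seeded in 96-well plates and treated with drug for 96 h at 37°C using 8-point serial dilutions from 0.0025 to 10 µM. Viability was read by Alamar Blue fluorescence after 6 h and normalised to positive and vehicle (DMSO) controls. IC50 values were fitted in ActivityBase; the value given is the mean of two independent experiments.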

[2] = system: PER-624
Procedure: as §1

[3] = system: A549
Procedure: as §1

[4] = system: P896-CL
Procedure: as §1

[5] = system: PER-891
Procedure: as §1

[6] = system: 8645
Procedure: as §1

[7] = system: 14169
Procedure: as §1

[8] = system: PER-704
Procedure: as §1

[9] = system: 10326
Procedure: as §1

[10] = system: CAKI-1
Procedure: as §1

[11] = system: PER-403
Procedure: as §1

[12] = system: RPMI2650
Procedure: as §1

[13] = system: 11060
Procedure: as §1

[14] = system: PER-712
Procedure: as §1

[15] = system: HS-27
Procedure: as §1

[16] = system: TC797
Procedure: as §1

[17] = system: PER-536
Procedure: as §1

[18] = system: WI-38
Procedure: as §1

[19] = system: HCC2429
Procedure: as §1

[20] = system: TY82
Procedure: as §1

For Cc1cc(/C=C/c2ccc3cc(N(C)C)ccc3[n+]2C)c(C)n1-c1ccccc1 [Pyrvinium pamoate], the IC50 cell viability [1] was 260 nM, the IC50 cell viability [2] was 188 nM and the IC50 cell viability [3] was 95 nM. The IC50 cell viability [4] was 304 nM, the IC50 cell viability [5] was 396 nM and the IC50 cell viability [6] was 268 nM. For the same compound, the IC50 cell viability [7] was 249 nM, the IC50 cell viability [8] was 198 nM and the IC50 cell viability [9] was 230 nM. The IC50 cell viability [10] was 906 nM, the IC50 cell viability [11] was 199 nM and the IC50 cell viability [12] was 421 nM. The IC50 cell viability [13] was 167 nM, the IC50 cell viability [14] was 277 nM and the IC50 cell viability [15] was 263 nM. It also gave an IC50 cell viability [16] of 165 nM, an IC50 cell viability [17] of 261 nM and an IC50 cell viability [18] of 256 nM. For the same compound, the IC50 cell viability [19] was 173 nM and the IC50 cell viability [20] was 206 nM.
With Cc1sc2c(c1C)C(c1ccc(Cl)cc1)=N[C@@H](CC(=O)Nc1ccc(O)cc1)c1nnc(C)n1-2 [OTX-015] the IC50 cell viability [1] was 622 nM, the IC50 cell viability [2] was 4270 nM and the IC50 cell viability [3] was 784 nM. The IC50 cell viability [4] was 921 nM, the IC50 cell viability [5] was 6720 nM and the IC50 cell viability [6] was 73.6 nM. The IC50 cell viability [7] was 35.1 nM, the IC50 cell viability [8] was 440 nM and the IC50 cell viability [9] was 6.97 nM. The IC50 cell viability [10] was 9360 nM, the IC50 cell viability [11] was 42.6 nM and the IC50 cell viability [12] was over 10000 nM. The IC50 cell viability [13] was 194 nM, the IC50 cell viability [14] was 939 nM and the IC50 cell viability [15] was 2450 nM. The IC50 cell viability [16] was over 10000 nM, the IC50 cell viability [17] was 4260 nM and the IC50 cell viability [18] was 543 nM. It also gave an IC50 cell viability [19] of 55.8 nM and an IC50 cell viability [20] of 137 nM.
Work on COc1cc2c(cc1-c1c(C)noc1C)ncc1[nH]c(=O)n([C@H](C)c3ccccn3)c12 [I-BET 151] yielded an IC50 cell viability [1] of 1140 nM, an IC50 cell viability [2] of 3240 nM and an IC50 cell viability [3] of 738 nM. The IC50 cell viability [4] was 3150 nM, the IC50 cell viability [5] was 9290 nM and the IC50 cell viability [6] was 529 nM. The IC50 cell viability [7] was 178 nM, the IC50 cell viability [8] was 950 nM and the IC50 cell viability [9] was 43.5 nM. It also gave an IC50 cell viability [10] of 7150 nM, an IC50 cell viability [11] of 129 nM and an IC50 cell viability [12] of 6810 nM. It also gave an IC50 cell viability [13] of 937 nM, an IC50 cell viability [14] of 1940 nM and an IC50 cell viability [15] of 4370 nM. For the same compound, the IC50 cell viability [16] was over 10000 nM, the IC50 cell viability [17] was 4210 nM and the IC50 cell viability [18] was 1760 nM. For the same compound, the IC50 cell viability [19] was 159 nM and the IC50 cell viability [20] was 584 nM.
CCCOc1ccn2c(C(C)=O)cc(-c3ccccc3S(C)(=O)=O)c2c1 [GSK-2801] showed an IC50 cell viability [1] of over 10000 nM, an IC50 cell viability [2] of over 10000 nM and an IC50 cell viability [3] of over 10000 nM. It also gave an IC50 cell viability [4] of over 10000 nM, an IC50 cell viability [5] of over 10000 nM and an IC50 cell viability [6] of over 10000 nM. It also gave an IC50 cell viability [7] of over 10000 nM, an IC50 cell viability [8] of over 10000 nM and an IC50 cell viability [9] of over 10000 nM. The IC50 cell viability [10] was over 10000 nM, the IC50 cell viability [11] was over 10000 nM and the IC50 cell viability [12] was over 10000 nM. It also gave an IC50 cell viability [13] of over 10000 nM, an IC50 cell viability [14] of over 10000 nM and an IC50 cell viability [15] of over 10000 nM. It also gave an IC50 cell viability [16] of over 10000 nM, an IC50 cell viability [17] of over 10000 nM and an IC50 cell viability [18] of over 10000 nM. For the same compound, the IC50 cell viability [19] was over 10000 nM and the IC50 cell viability [20] was over 10000 nM.
COc1cc2ncnc(Nc3ccc(F)c(Cl)c3)c2cc1OCCCN1CCOCC1 [Gefitinib] showed an IC50 cell viability [1] of over 10000 nM, an IC50 cell viability [2] of 2210 nM and an IC50 cell viability [3] of 2740 nM. It also gave an IC50 cell viability [4] of 1450 nM, an IC50 cell viability [5] of 6540 nM and an IC50 cell viability [7] of 6050 nM. For the same compound, the IC50 cell viability [8] was over 10000 nM, the IC50 cell viability [9] was 5890 nM and the IC50 cell viability [10] was over 10000 nM. For the same compound, the IC50 cell viability [11] was over 10000 nM, the IC50 cell viability [12] was over 10000 nM and the IC50 cell viability [13] was 5370 nM. The IC50 cell viability [14] was over 10000 nM, the IC50 cell viability [15] was 7850 nM and the IC50 cell viability [16] was over 10000 nM. It also gave an IC50 cell viability [17] of over 10000 nM, an IC50 cell viability [18] of 5190 nM and an IC50 cell viability [19] of over 10000 nM. The IC50 cell viability [20] was over 10000 nM.
